Experimental data published in US6737383B1, “Herbicidal oxadiazolidines” (priority 1999, dated 2004).

What was measured:
[1] = test system: bedstraw; experiment: Test B pre/postemergence bedstraw; assay type: in vivo, Galium aparine; conditions: Preemergence
In short: (§1)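 Test chemicals in a non-phytotoxic solvent mixture with surfactant were sprayed preemergence onto planted seeds and postemergence onto plants 2 to 18 cm tall (1- to 4-leaf stage). After twelve to sixteen days in a greenhouse, injury was visually rated against untreated controls from 0 (no effect) to 10 (complete control).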

[2] = test system: blackgrass; experiment: Test B pre/postemergence blackgrass; assay type: in vivo, Alopecurus myosuroides; conditions: Preemergence
In short: as §1

[3] = test system: surinam grass; experiment: Test B pre/postemergence surinam grass; assay type: in vivo, Brachiaria decumbens; conditions: Preemergence
In short: as §1

[4] = test system: cocklebur; experiment: Test B pre/postemergence cocklebur; assay type: in vivo, Xanthium strumarium; conditions: Preemergence
In short: as §1

[5] = test system: corn; experiment: Test B pre/postemergence corn; assay type: in vivo, Zea mays; conditions: Preemergence
In short: as §1

[6] = test system: crabgrass; experiment: Test B pre/postemergence crabgrass; assay type: in vivo, Digitaria sanguinalis; conditions: Preemergence
In short: as §1

[7] = test system: giant foxtail; experiment: Test B pre/postemergence giant foxtail; assay type: in vivo, Setaria faberii; conditions: Preemergence
In short: as §1

[8] = test system: morningglory; experiment: Test B pre/postemergence morningglory; assay type: in vivo, Ipomoea hederacea; conditions: Preemergence
In short: as §1

[9] = test system: pigweed; experiment: Test B pre/postemergence pigweed; assay type: in vivo, Amaranthus retroflexus; conditions: Preemergence
In short: as §1

[10] = test system: rape; experiment: Test B pre/postemergence rape; assay type: in vivo, Brassica napus; conditions: Preemergence
In short: as §1

[11] = test system: soybean; experiment: Test B pre/postemergence soybean; assay type: in vivo, Glycine max; conditions: Preemergence
In short: as §1

[12] = test system: sugar beet; experiment: Test B pre/postemergence sugar beet; assay type: in vivo, Beta vulgaris; conditions: Preemergence
In short: as §1

[13] = test system: velvetleaf; experiment: Test B pre/postemergence velvetleaf; assay type: in vivo, Abutilon theophrasti; conditions: Preemergence
In short: as §1

[14] = test system: wheat; experiment: Test B pre/postemergence wheat; assay type: in vivo, Triticum aestivum; conditions: Preemergence
In short: as §1

[15] = test system: wild oat; experiment: Test B pre/postemergence wild oat; assay type: in vivo, Avena fatua; conditions: Preemergence
In short: as §1

[16] = test system: purple nutsedge; experiment: Test B pre/postemergence purple nutsedge; assay type: in vivo, Cyperus rotundus; conditions: Preemergence
In short: as §1

[17] = test system: rice; experiment: Test B flood test rice; assay type: in vivo, Oryza sativa
In short: (§2)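 Flood test on plants grown to the 2-leaf stage; treated plants kept in greenhouse twelve to sixteen days, then visually rated against controls on a 0 (no effect) to 10 (complete control) scale.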

[18] = test system: smallflower flatsedge; experiment: Test B flood test smallflower flatsedge; assay type: in vivo, Cyperus difformis
In short: as §2

[19] = test system: duck salad; experiment: Test B flood test duck salad; assay type: in vivo, Heteranthera limosa
In short: as §2

[20] = test system: bamyardgrass; experiment: Test B flood test barnyardgrass; assay type: in vivo, Echinochloa crus-galli
In short: as §2

[21] = Rate 125 g/ha, scale of 0 to 10 where 0 is no effect and 10 is complete control
[22] = Rate 250 g/ha, scale 0 (no effect) to 10 (complete control)
[23] = Rate 500 g/ha, scale 0 to 10 (0 no effect, 10 complete control)
[24] = Rate 1000 g/ha, scale 0 to 10 (0 no effect, 10 complete control)
[25] = Pre-emergence, Rate 62 g/ha, scale 0 to 10, 0 is no effect, 10 is complete control
[26] = Rate 125 g/ha, Pre-emergence section (flood test species), scale 0 to 10, 0 no effect, 10 complete control
[27] = Rate 250 g/ha, Pre-emergence (flood test species), scale 0 to 10, 0 is no effect, 10 is complete control
[28] = Rate 500 g/ha, Pre-emergence section of Table B, 0 to 10 scale (0 no effect, 10 complete control)

COC(=O)C(c1ccccc1)n1c(=O)on(C(=O)N(c2ccc(Cl)cc2)C(C)C)c1=O (centres unmarked) [Compound 724]
3: Plant response rating, Crabgrass [6, 21] | Plant response rating, Redroot pigweed [9, 24]
9: Plant response rating, Crabgrass [6, 24] | Giant foxtail plant response rating [7, 23]
10: Plant response rating, Giant foxtail [7, 24]
7: Crabgrass plant response rating [6, 22] | Crabgrass plant response rating [6, 23] | Giant foxtail plant response rating [7, 22]
0: Plant response rating, Bedstraw [1, 21] | Bedstraw plant response rating [1, 22] | Bedstraw plant response rating [1, 23] | Plant response rating, Bedstraw [1, 24] | Plant response rating, Blackgrass [2, 21] | Blackgrass plant response rating [2, 22] | Blackgrass plant response rating [2, 23] | Plant response rating, B. signalgrass [3, 21] | B. signalgrass plant response rating [3, 22] | B. signalgrass plant response rating [3, 23] | Plant response rating, B. signalgrass [3, 24] | Plant response rating, Cocklebur [4, 21] | Cocklebur plant response rating [4, 22] | Cocklebur plant response rating [4, 23] | Plant response rating, Cocklebur [4, 24] | Plant response rating, Corn [5, 21] | Corn plant response rating [5, 22] | Corn plant response rating [5, 23] | Plant response rating, Corn [5, 24] | Plant response rating, Giant foxtail [7, 21] | Plant response rating, Morningglory [8, 21] | Morningglory plant response rating [8, 22] | Morningglory plant response rating [8, 23] | Plant response rating, Morningglory [8, 24] | Plant response rating, Redroot pigweed [9, 21] | Redroot pigweed plant response rating [9, 22] | Redroot pigweed plant response rating [9, 23] | Plant response rating, Rape [10, 21] | Rape plant response rating [10, 22] | Rape plant response rating [10, 23] | Plant response rating, Rape [10, 24] | Plant response rating, Soybean [11, 21] | Soybean plant response rating [11, 22] | Soybean plant response rating [11, 23] | Plant response rating, Soybean [11, 24] | Plant response rating, Sugarbeets [12, 21] | Sugarbeets plant response rating [12, 22] | Sugarbeets plant response rating [12, 23] | Plant response rating, Sugarbeets [12, 24] | Plant response rating, Velvetleaf [13, 21] | Velvetleaf plant response rating [13, 22] | Velvetleaf plant response rating [13, 23] | Plant response rating, Velvetleaf [13, 24] | Plant response rating, Wheat [14, 21] | Wheat plant response rating [14, 22] | Wheat plant response rating [14, 23] | Plant response rating, Wheat [14, 24] | Plant response rating, Wild oats [15, 21] | Wild oats plant response rating [15, 22] | Wild oats plant response rating [15, 23] | Plant response rating, Wild oats [15, 24] | Plant response rating, Nutsedge [16, 21] | Nutsedge plant response rating [16, 22] | Nutsedge plant response rating [16, 23] | Plant response rating, Nutsedge [16, 24] | Rice plant response rating [17, 25] | Rice plant response rating [17, 26] | Rice plant response rating [17, 27] | Rice plant response rating [17, 28] | S. Flatsedge plant response rating [18, 25] | S. Flatsedge plant response rating [18, 26] | S. Flatsedge plant response rating [18, 27] | S. Flatsedge plant response rating [18, 28] | Ducksalad plant response rating [19, 25] | Ducksalad plant response rating [19, 26] | Ducksalad plant response rating [19, 27] | Ducksalad plant response rating [19, 28] | Barnyardgrass plant response rating [20, 25] | Barnyardgrass plant response rating [20, 26] | Barnyardgrass plant response rating [20, 27] | Barnyardgrass plant response rating [20, 28]
2: Plant response rating, Blackgrass [2, 24]
